Laboratory results: article PMC11232385, “Selective depletion of HBV-infected hepatocytes by class A capsid assembly modulators requires high levels of intrahepatic HBV core protein” (Antimicrobial Agents and Chemotherapy, 2024)
Like-named read-outs stand apart in the source and are kept apart here.

What was measured:
HBV [1] = tested on: HBV; parameters: method as in doi:10.1016/S0168-8278(20)32197-8; conditions: cited from earlier work
AAV-HBV (HBV genotype D) = assay: Efficacy study in the AAV-HBV mouse model; format: in vivo, C57BL/6 mice; conditions: for serum ALT: during 56 days of treatment; for serum HBV DNA reduction / reduction of HBc-positive cells in the liver / HBeAg reduction / HBsAg reduction: end of treatment (day 56); for serum HBV DNA reduction: oral QD; for reduction of HBc-positive cells in the liver: immunofluorescence; for HBeAg reduction / HBsAg reduction: relative to vehicle
Description: Recombinant AAV (serotype 8) carrying the 1.3 copy HBV genome (genotype D; serotype ayw) and empty AAV were provided by Beijing FivePlus Molecular Medicine Institute (Beijing, China). C57BL/6 mice were provided by Shanghai Lingchang Bio Tech Co. Ltd (Shanghai, China). Studies were conducted by Covance Pharmaceutical R&D (Shanghai, China). All procedures implemented during the studies followed local animal welfare legislation, Covance global policies and procedures, and the Guide for the Care and Use of Laboratory Animals.
C57BL/6 mice (male; 4–5 weeks of age) were injected with 200 µL PBS containing 1 × 10^11 vge recombinant virus per mouse through the tail vein. Twenty-eight days after AAV-HBV injection, the mice were bled retro-orbitally to monitor HBsAg and HBV genomic DNA in serum. Based on the HBsAg, HBeAg, and HBV DNA levels and body weight, AAV-HBV-infected mice were selected and randomized into groups (six animals per group) for compound and/or siRNA treatment. […] LNP empty and LNP siRNA 3 mg/kg were injected intravenously at 4 mL/kg on dosing days 0, 14, 28, 42, and 56. […] Serum HBsAg, HBeAg, and HBV DNA were measured twice weekly. ALT was measured once weekly throughout the study. Serum HBsAg and HBeAg were determined by […] i2000 (Abbott Laboratories, Lake Bluff, IL, USA). Serum HBV-DNA was analyzed by ABI7500 (Applied Biosystems, Foster City, CA, USA) and a detection kit (Sansure Biotech Inc., Changsha, Hunan, China). Serum ALT was determined using Roche Cobas 6000 Chemistry Analyzer (Roche Diagnostics, Mannheim, Germany) and supporting reagents.
(§1) Dewaxing and unmasking of antigens were performed on a Bond RX autostainer (Leica Biosystem), and subsequent assay modified for a single round of staining was performed using the Opal technology workflow (Akoya Biosciences), as described previously ([39]).

[2] = uPA-SCID mouse, 100 mg-eq/kg oral QD
HBV cccDNA = conditions: cited from earlier work
HBV genotype D = assay: Antiviral activity in HBV-infected PHH, drugs added day 3 post infection, 6 days of treatment; format: cell-based, Hepatitis B virus
Description: (§2) Cryopreserved PHHs isolated from multiple donors were purchased from Thermo Fisher Scientific (Waltham, MA), Bioreclamation IVT (Hicksville, NY), or Lonza (USA). PHH culturing conditions as previously described ([11]). Approximately 24 h after plating, PHH was infected with HepAD38-derived HBV virions ([36]) (genotype D virus) at 500 viral genome equivalents per cell in a maintenance medium supplemented with 4% PEG 8000 (Promega, Madison, WI; V3011). The infection was allowed to proceed for 20–24 h before removing remaining extracellular virions by washing with a maintenance medium three times.
Extracellular HBsAg and HBeAg were detected in culture media by an electrochemiluminescence assay (Meso Scale Discovery [MSD]) as previously described ([37]).
Extracellular HBV DNA from PHH supernatants was purified using the Qiagen DNeasy 96 kit (69582) following the protocol recommended by the manufacturer. Quantification of HBV DNA by qPCR amplification of the HBV X region of the genome was performed as previously reported ([11]).
(§3) Antiviral activity or cytotoxicity of each test compound was determined from, extracellular HBV DNA, HBeAg, HBsAg, and alamarBlue data by comparing compound-treated PHH to DMSO-treated PHH to generate a percent of DMSO control value (% DMSO control). The % DMSO control was calculated by the following equation: % DMSO Control = 100× (XC/XD) where XC is the signal from the compound-treated PHH, and XD is the signal from the DMSO-treated PHH. The percentage of DMSO control for HBV DNA, HBeAg, HBsAg, and alamarBlue was plotted vs the log of each compound concentration in GraphPad Prism (version 6; GraphPad Software, La Jolla, CA) to generate dose-response curves. […] Error bars represent SD. Statistical analyses were performed by two-way analysis of variance (ANOVA) and Pearson’s correlation tests.

HBV genotype C = format: in vivo, uPA-SCID mice; conditions: uPA-SCID mouse; for mean decrease of serum HBV DNA: compared to the vehicle, 84 days oral QD; for HBsAg decline: day 84 vs day 0
Description: General health observations including weight were monitored weekly. All animal protocols were performed in accordance with the Guide for the Care and Use of Laboratory Animals and approved by the Animal Welfare Committee of Phoenix Bio Co., Ltd. All mice were housed individually and maintained in accordance with the Animal Ethics Committee of PhoenixBio (resolution #2214).
HBV-infected mice were randomized into four different treatment groups based on body weight, blood human albumin (h-Alb), and serum HBV DNA concentrations. All mice had blood h-Alb levels above 12 mg/mL and serum HBV DNA levels above 6.8 × 10^8 copies/mL. […] Mice were followed for an additional 28 days following cessation of treatment at day 84. Mouse serum was monitored weekly for serum HBV DNA and HBV antigens and biweekly for human (h) ALT1. Serum HBsAg and HBeAg concentrations were determined by SRL, Inc. (Tokyo, Japan) based on Chemiluminescent Enzyme Immuno Assay. HBV DNA concentration was performed using the TaqMan Fast Advanced Master Mix (Applied Biosystems, Thermo Fisher Scientific Inc.) and Applied Biosystems 7500 Real-Time PCR System (Applied Biosystems). Serum h-ALT1 concentration was determined by the Institute of Immunology Co., Ltd. (Tokyo, Japan) based on Enzyme-Linked ImmunoSorbent Assay.
as §1

PHH = assay: Cytotoxicity (alamarBlue) in HBV-infected PHH, 6 days of treatment; format: cell-based, human
Description: as §2, §3

[3] = AAV-HBV mouse, 100 mg-eq/kg oral QD
HBV [4] = tested on: HBV; parameters: method as in doi:10.1016/S0168-8278(22)00964-3, doi:10.1016/S0168-8278(22)02029-3; conditions: treatment-naïve and NA-suppressed patients, with an NA; cited from earlier work

Row | Compound | serum ALT (AAV-HBV (HBV genotype D)) | serum HBV DNA reduction (AAV-HBV (HBV genotype D)) [log10] | reduction of HBc-positive cells in the liver (AAV-HBV (HBV genotype D)) | HBeAg reduction (AAV-HBV (HBV genotype D)) | HBsAg reduction (AAV-HBV (HBV genotype D)) | mean decrease of serum HBV DNA (HBV genotype C) [log10] | HBsAg decline (HBV genotype C) [log10] | other results
1 | CCOC(=O)C1=C(CN2CCOCC2)NC(c2nccs2)=NC1c1ccc(F)cc1Br (stereo not shown) [GLS4] |  |  |  |  |  |  |  | HBsAg reduction (HBV [1]; treatment-naïve HBeAg-positive patients): 0.4 log10 IU/mL; HBsAg effect (HBV [1]; virally suppressed patients): no effect
2 | CNC(=O)C1(NC(=O)C(=O)c2c(C)c(C(=O)Nc3ccc(F)c(F)c3)n3c2CCC3)CC(F)(F)C1 [GS-SBA-1P] | no changes | 3.7 | minimal reduction | no changes | no changes | 5.0 | 0.4 | plasma exposures over the mouse plasma-adjusted EC50 of HBV DNA production [2]: greater than 76 fold; concentration blocking cccDNA establishment over the HBV DNA plasma-adjusted EC50 (HBV cccDNA): six-fold; EC50 (HBV genotype D; extracellular HBV DNA, mean ± SD, read-out: Viral DNA EC50): 0.012 ± 0.0012 µM; EC50 (HBV genotype D; read-out: HBeAg EC50): > 2 µM; EC50 (HBV genotype D; read-out: HBsAg EC50): > 2 µM; reduction of HBc-positive cells in the liver (HBV genotype C; immunofluorescence, compared to vehicle or TAF-treated animals): 30%; CC50 (PHH): > 2 µM; plasma and liver concentrations over the paEC50 [3]: approximately 76 fold
3 | CCOC(=O)C1=C(CN2CCN3C(=O)N(CC(C)(C)C(=O)O)C[C@@H]3C2)N=C(c2nccs2)N[C@H]1c1cccc(F)c1C [RG7907] |  |  |  |  |  |  |  | HBsAg reduction (HBV [4]): no significant reduction of HBsAg
4 | CC(C)OC(=O)[C@H](C)N[P@](=O)(CO[C@H](C)Cn1cnc2c(N)ncnc21)Oc1ccccc1 [TAF, tenofovir alafenamide] | no changes | 2.5 | no change | no changes | no changes | 3.6 | 0.35 | 
